Test [1] deals with HCV genotype 1b replicon. Briefly: HCV replicon assay, genotype 1b replicon EC50. It is filed as cell-based, Hepatitis C virus. The settings on record: read-out: EC50 [gt-1b]. The method, then:
Measuring Compound Inhibitory Potency (Genotype 1b Replicon EC50 (nM))
Measurement of inhibition by compounds was performed using the HCV replicon system. Several different replicons encoding different HCV genotypes or mutations were used. In addition, potency measurements were made using different formats of the replicon assay, including different ways of measurements and different plating formats. See Jan M. Vrolijk et al., A replicons-based bioassay for the measurement of interferons in patients with chronic hepatitis C, 110 J. VIROLOGICAL METHODS 201 (2003); Steven S. Carroll et al., Inhibition of Hepatitis C Virus RNA Replication by 2′-Modified Nucleoside Analogs, 278(14) J. BIOLOGICAL CHEMISTRY 11979 (2003). However, the underlying principles are common to all of these determinations, and are outlined below.
Stable neomycin phosphotransferase encoding replicon-harboring cell lines were used, so all cell lines were maintained under G418 selection prior to the assay. In some cases the cell lines encoded a luciferase:Neo^r fusion and could be assayed either directly by determination of RNA copy number, or indirectly through measurement of the luciferase activity.
To initiate an assay, replicon cells were plated in the presence of a dilution series of test compound in the absence of G418. Typically, the assays were performed in a 96-well plate format for manual operation, or a 384 well plate in an automated assay. Replicon cells and compound were incubated for 24-48 hours, depending on the assay. At the end of the assay, cells are washed free of media and compound and then lysed. For direct quantitation, RNA levels were measured by ^32P-probe hybridization and protection, or in a TAQMAN based assay and normalized to cellular cyclophilin A RNA levels. In some cases, luciferase activity was measured using a conventional luciferase assay. In all cases EC50 determinations were calculated as a percent of a DMSO control by fitting the data to a four parameter fit function.

The target of test [2] is HCV NS3/4A protease genotype 1b (Hepatitis C virus genotype 1b, UniProt P26663). As to the kind of experiment: HCV NS3/4A protease time-resolved fluorescence (TRF) assay, Ki against genotype 1b. It is filed as biochemical. In short, it runs like this: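 First, protease (genotype 1b 0.2 nM, A156T 0.4 nM, genotype 3a 0.025 nM) is preincubated 30 min with inhibitor. Next, 25 nM TRF substrate starts the reaction, run 2.5 h at room temperature. Finally, europium fluorescence is read and Ki calculated from IC50.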

Setting [3] is: Hepatitis C virus, genotype 1b replicon.
The mark [4] stands for this setting: IC50 [gt-1b] (nM), NS3/4A genotype 1b, enzyme 0.2 nM.
Setting [5] is: Hepatitis C virus, genotype 1b replicon, K+ salt.
[6] abbreviates: IC50 [gt-1b] (nM), NS3/4A genotype 1b, enzyme 0.2 nM, K+ salt.

Read-outs that look alike come from different tables or passages of the source.

By EC50 is commonly meant the concentration giving half of the maximal effect. What is called IC50 is the concentration at which inhibition is half-maximal. Take `Cc1nc2ccc(Cl)cc2c2c1O[C@]1(CC2)C[C@H]2C(=O)N[C@]3(C(=O)NS(=O)(=O)C4(C)CC4)C[C@H]3/C=C\CCCCC[C@H](NC(=O)OC(C)(C)C(F)(F)F)C(=O)N2C1` [Example 333, 1,1,1-trifluoro-2-methylpropan-2-yl [(2R,6S,12Z,13aS,14aR,16aS)-9′-chloro-5′-methyl-14a-{[(1-methylcyclopropyl)sulfonyl]carbamoyl}-5,16-dioxo-1,1′,2′,5,6,7,8,9,10,11,13a,14,14a,15,16,16a-hexadecahydrospiro[cyclopropa[e]pyrrolo[1,2-a][1,4]diazacyclopentadecine-2,3′-pyrano[2,3-c]quinolin]-6-yl]carbamate]: the EC50 in test [1] (setting [3]) stood at 10.3 nM. Moreover, the IC50 in test [2] (setting [4]) amounted to 0.01 nM.
In the case of `Cc1nc2ccc(Cl)cc2c2c1O[C@]1(CC2)C[C@H]2C(=O)N[C@]3(C(=O)NS(=O)(=O)C4(C)CC4)C[C@H]3/C=C\CCCCC[C@H](NC(=O)OCC3CC3)C(=O)N2C1` [Example 222, cyclopropylmethyl [(2R,6S,12Z,13aS,14aR,16aS)-9′-chloro-5′-methyl-14a-{[(1-methylcyclopropyl)sulfonyl]carbamoyl}-5,16-dioxo-1,1′,2′,5,6,7,8,9,10,11,13a,14,14a,15,16,16a-hexadecahydrospiro[cyclopropa[e]pyrrolo[1,2-a][1,4]diazacyclopentadecine-2,3′-pyrano[2,3-c]quinolin]-6-yl]carbamate], the EC50 in test [1] (setting [5]) amounted to 4.78 nM. Also, the IC50 in test [2] (setting [6]) was determined as 0.009 nM.
Take `CCc1nc2ccc(OC)cc2c2c1O[C@]1(CC2)C[C@H]2C(=O)N[C@]3(C(=O)NS(=O)(=O)C4(C)CC4)C[C@H]3/C=C\CCCCC[C@H](NC(=O)O[C@H](C)C(C)C)C(=O)N2C1` [Example 433, (2R)-3-methylbutan-2-yl [(2R,6S,12Z,13aS,14aR,16aS)-5′-ethyl-9′-methoxy-14a-{[(1-methylcyclopropyl)sulfonyl]carbamoyl}-5,16-dioxo-1,1′,2′,5,6,7,8,9,10,11,13a,14,14a,15,16,16a-hexadecahydrospiro[cyclopropa[e]pyrrolo[1,2-a][1,4]diazacyclopentadecine-2,3′-pyrano[2,3-c]quinolin]-6-yl]carbamate]: the EC50 in test [1] (Hepatitis C virus, HCV replicon, genotype 1b) is 2.17 nM. In test [2] (IC50 [gt-1b], NS3/4A protease TRF assay, genotype 1b enzyme 0.2 nM), this molecule had an IC50 of 0.012 nM.
For `COc1ccc2nc(C)c3c(c2c1)[C@H](F)C[C@]1(C[C@H]2C(=O)N[C@]4(C(=O)NS(=O)(=O)C5(C)CC5)C[C@H]4/C=C\CCCCC[C@H](NC(=O)O[C@@H](C)C(C)C)C(=O)N2C1)O3` [Example 358, (2S)-3-methylbutan-2-yl [(1′R,2S,6S,12Z,13aS,14aR,16aS)-1′-fluoro-9′-methoxy-5′-methyl-14a-{[(1-methylcyclopropyl)sulfonyl]carbamoyl}-5,16-dioxo-1,1′,2′,5,6,7,8,9,10,11,13a,14,14a,15,16,16a-hexadecahydrospiro[cyclopropa[e]pyrrolo[1,2-a][1,4]diazacyclopentadecine-2,3′-pyrano[2,3-c]quinolin]-6-yl]carbamate], the EC50 in test [1] (Hepatitis C virus, HCV replicon, genotype 1b, K+ salt) was found to be 42.8 nM. For the same molecule, in test [2] (IC50 [gt-1b], NS3/4A protease TRF assay, genotype 1b enzyme 0.2 nM, K+ salt), the IC50 stood at 0.172 nM.
`CC(C)(C)OC(=O)N[C@H]1CCCCC/C=C\C2CC2(C(=O)NS(=O)(=O)C2(C)CC2)NC(=O)C2C[C@]3(CCc4c(c(C5CC5)nc5ccc(F)cc45)O3)CN2C1=O` (stereo partly drawn) [Example 68, tert-butyl [(2R,6S,12Z)-5′-cyclopropyl-9′-fluoro-14a-{[(1-methylcyclopropyl)sulfonyl]carbamoyl}-5,16-dioxo-1,1′,2′,5,6,7,8,9,10,11,13a,14,14a,15,16,16a-hexadecahydrospiro[cyclopropa[e]pyrrolo[1,2-a][1,4]diazacyclopentadecine-2,3′-pyrano[2,3-c]quinolin]-6-yl]carbamate]: the EC50 in test [1] (setting [3]) came out at 0.98 nM. The molecule further had an IC50 in test [2] (setting [4]) of 0.016 nM.
Turning to `COc1ccc2c3c(c(C4CC4)nc2c1)O[C@]1(CC3)C[C@H]2C(=O)N[C@]3(C(=O)NS(=O)(=O)C4(C)CC4)C[C@H]3/C=C\CCCCC[C@H](NC(=O)OCCF)C(=O)N2C1` [Example 277, 2-fluoroethyl [(2R,6S,12Z,13aS,14aR,16aS)-5′-cyclopropyl-8′-methoxy-14a-{[(1-methylcyclopropyl)sulfonyl]carbamoyl}-5,16-dioxo-1,1′,2′,5,6,7,8,9,10,11,13a,14,14a,15,16,16a-hexadecahydrospiro[cyclopropa[e]pyrrolo[1,2-a][1,4]diazacyclopentadecine-2,3′-pyrano[2,3-c]quinolin]-6-yl]carbamate], the EC50 in test [1] (Hepatitis C virus, genotype 1b replicon, HCOOH salt) was determined as 81.6 nM. In test [2] (IC50 [gt-1b] (nM), NS3/4A genotype 1b, enzyme 0.2 nM, HCOOH salt), the IC50 was 1.05 nM.
Consider `Cc1nc2ccccc2c2c1O[C@]1(CC2O)C[C@H]2C(=O)N[C@]3(C(=O)NS(=O)(=O)C4(C)CC4)C[C@H]3/C=C\CCCCC[C@H](NC(=O)OC(C)(C)C)C(=O)N2C1` (stereo partly drawn) [Example 120, tert-butyl [(2S,6S,12Z,13aS,14aR,16aS)-1′-hydroxy-5′-methyl-14a-{[(1-methylcyclopropyl)sulfonyl]carbamoyl}-5,16-dioxo-1,1′,2′,5,6,7,8,9,10,11,13a,14,14a,15,16,16a-hexadecahydrospiro[cyclopropa[e]pyrrolo[1,2-a][1,4]diazacyclopentadecine-2,3′-pyrano[2,3-c]quinolin]-6-yl]carbamate], for which the EC50 in test [1] (genotype 1b replicon) was 19 nM. This molecule gave an IC50 in test [2] (setting [4]) of 0.032 nM.
With `Cc1nc2cc(Cl)ccc2c2c1O[C@]1(CC2)C[C@H]2C(=O)N[C@]3(C(=O)NS(=O)(=O)C4(C)CC4)C[C@H]3/C=C\CCCCC[C@H](NC(=O)OC3(C)CC3)C(=O)N2C1` [Example 236, 1-methylcyclopropyl [(2R,6S,12Z,13aS,14aR,16aS)-8′-chloro-5′-methyl-14a-{[(1-methylcyclopropyl)sulfonyl]carbamoyl}-5,16-dioxo-1,1′,2′,5,6,7,8,9,10,11,13a,14,14a,15,16,16a-hexadecahydrospiro[cyclopropa[e]pyrrolo[1,2-a][1,4]diazacyclopentadecine-2,3′-pyrano[2,3-c]quinolin]-6-yl]carbamate], the EC50 in test [1] (setting [5]) was 7.24 nM. In addition, in test [2] (setting [6]), the IC50 is 0.056 nM.
In the case of `Cc1nc2ccccc2c2c1O[C@]1(CC2)C[C@H]2C(=O)N[C@]3(C(=O)NS(=O)(=O)C4(C)CC4)C[C@H]3/C=C\CCCCC[C@H](NC(=O)OC(CN(C)S(C)(=O)=O)C(C)(C)C)C(=O)N2C1` (single isomer, unassigned) [Example 259], the EC50 in test [1] (setting [3]) came to 24 nM. Further, the IC50 in test [2] (setting [4]) worked out at 0.007 nM.
The like results for `CCc1ccc2nc(C)c3c(c2c1)CC[C@]1(C[C@H]2C(=O)N[C@]4(C(=O)NS(=O)(=O)C5(C)CC5)C[C@H]4/C=C\CCCCC[C@H](NC(=O)OC(C)(C)C)C(=O)N2C1)O3` [Example 313, tert-butyl [(2R,6S,12Z,13aS,14aR,16aS)-9′-ethyl-5′-methyl-14a-{[(1-methylcyclopropyl)sulfonyl]carbamoyl}-5,16-dioxo-1,1′,2′,5,6,7,8,9,10,11,13a,14,14a,15,16,16a-hexadecahydrospiro[cyclopropa[e]pyrrolo[1,2-a][1,4]diazacyclopentadecine-2,3′-pyrano[2,3-c]quinolin]-6-yl]carbamate] were, in that order, 2.87 nM and 0.016 nM.
The like results for `CC1(OC(=O)N[C@H]2CCCCC/C=C\[C@@H]3C[C@@]3(C(=O)NS(=O)(=O)C3(C)CC3)NC(=O)[C@@H]3C[C@]4(CCc5c(c(C6CC6)nc6c(F)cccc56)O4)CN3C2=O)CCCCC1` [Example 176, 1-methylcyclohexyl [(2R,6S,12Z,13aS,14aR,16aS)-5′-cyclopropyl-7′-fluoro-14a-{[(1-methylcyclopropyl)sulfonyl]carbamoyl}-5,16-dioxo-1,1′,2′,5,6,7,8,9,10,11,13a,14,14a,15,16,16a-hexadecahydrospiro[cyclopropa[e]pyrrolo[1,2-a][1,4]diazacyclopentadecine-2,3′-pyrano[2,3-c]quinolin]-6-yl]carbamate] were, in that order, 2.26 nM and 0.026 nM.

The values above are taken from US8987195B2 (priority 2012, dated 2015).
